Measurements published in ChEMBL document CHEMBL1144380, “Furanyl-1,3-thiazol-2-yl and benzoxazol-5-yl acetic acid derivatives: novel classes of heparanase inhibitor” (Bioorg Med Chem Lett, 2005).

Test system: not listed separately
Assay: In vitro anti-angiogenic activity in Human endothelial cells
Assay type: functional, cell-based
Details: endothelial cell

| Structure (SMILES) | IC50 |
| --- | --- |
| O=C(O)Cc1ccc2oc(-c3ccc(NC(=O)/C=C/c4ccc(Cl)cc4Cl)cc3Cl)nc2c1 | 5 µM |
| O=C(O)Cc1ccc2oc(-c3ccc(NC(=O)/C=C/c4ccc(Cl)cc4Cl)c(F)c3)nc2c1 | > 20 µM |
| O=C(O)Cc1nc(-c2ccc(-c3ccc(NC(=O)c4ccc(C(F)(F)F)cc4)cc3Cl)o2)cs1 | 7.5 µM |
| O=C(O)Cc1ccc2oc(-c3ccc(NC(=O)/C=C/c4cccc(Br)c4)c(F)c3)nc2c1 | 1 µM |
| N#Cc1cccc(C(=O)Nc2ccc(-c3ccc(-c4csc(CC(=O)O)n4)o3)c(Cl)c2)c1 | > 20 µM |
| O=C(O)Cc1ccc2oc(-c3ccc(NC(=O)/C=C/c4ccc(Br)cc4)cc3Cl)nc2c1 | 7.5 µM |
| N#Cc1ccc(/C=C/C(=O)Nc2ccc(-c3nc4cc(CC(=O)O)ccc4o3)cc2F)cc1 | 1 µM |
| COc1ccc(/C=C/C(=O)Nc2ccc(-c3ccc(-c4csc(CC(=O)O)n4)o3)c(Cl)c2)cc1 | 5 µM |
| O=C(O)Cc1nc(-c2ccc(-c3ccc(NC(=O)c4ccc(Cl)cc4Cl)cc3Cl)o2)cs1 | 0.5 µM |
| O=C(O)Cc1ccc2oc(-c3ccc(NC(=O)/C=C/c4ccc(Br)cc4)cc3)nc2c1 | 20 µM |
| O=C(O)Cc1nc(-c2ccc(-c3ccc(NC(=O)/C=C/c4ccc(Br)cc4)cc3Cl)o2)cs1 | 1 µM |
| O=C(O)Cc1nc(-c2ccc(-c3ccc(NC(=O)/C=C/c4ccc(Cl)cc4Cl)cc3Cl)o2)cs1 | > 20 µM |
| O=C(O)Cc1ccc2oc(-c3ccc(NC(=O)/C=C/c4ccc(Br)cc4)c(F)c3)nc2c1 | 1 µM |
| O=C(O)Cc1ccc2oc(-c3ccc(NC(=O)/C=C/c4ccc(F)c(Cl)c4)c(F)c3)nc2c1 | 1 µM |
| O=C(O)Cc1ccc2oc(-c3ccc(NC(=O)/C=C/c4cccc(Cl)c4F)c(F)c3)nc2c1 | 5 µM |

Results, then the molecule that gave them:

| IC50 | Structure (SMILES) |
| --- | --- |
| 0.5 µM | O=C(O)Cc1nc(-c2ccc(-c3ccc(NC(=O)c4ccc(OC(F)(F)F)cc4)cc3Cl)o2)cs1 |
| 0.2 µM | O=C(O)Cc1ccc2oc(-c3ccc(NC(=O)/C=C/c4ccc(Cl)c(Cl)c4)c(F)c3)nc2c1 |
| 15 µM | O=C(O)Cc1nc(-c2ccc(-c3ccc(NC(=O)/C=C/c4ccccc4)cc3Cl)o2)cs1 |
| 20 µM | O=C(O)Cc1ccc2oc(-c3ccc(NC(=O)/C=C/c4cccc(Br)c4)cc3Cl)nc2c1 |
| 20 µM | O=C(O)Cc1nc(-c2ccc(-c3ccc(NC(=O)/C=C/c4ccc(OC(F)(F)F)cc4)cc3Cl)o2)cs1 |
| 7.5 µM | O=C(O)Cc1ccc2oc(-c3ccc(NC(=O)/C=C/c4cccc(Cl)c4)c(F)c3)nc2c1 |
| 2 µM | O=C(O)Cc1nc(-c2ccc(-c3ccc(NC(=O)c4ccc(Cl)cc4)cc3Cl)o2)cs1 |
| > 20 µM | O=C(O)Cc1ccc2oc(-c3ccc(NC(=O)/C=C/c4cccc(Br)c4)cc3)nc2c1 |

Target: Cytochrome P450 2C9 (Homo sapiens, UniProt P11712)
Sequence (P11712 whole entry): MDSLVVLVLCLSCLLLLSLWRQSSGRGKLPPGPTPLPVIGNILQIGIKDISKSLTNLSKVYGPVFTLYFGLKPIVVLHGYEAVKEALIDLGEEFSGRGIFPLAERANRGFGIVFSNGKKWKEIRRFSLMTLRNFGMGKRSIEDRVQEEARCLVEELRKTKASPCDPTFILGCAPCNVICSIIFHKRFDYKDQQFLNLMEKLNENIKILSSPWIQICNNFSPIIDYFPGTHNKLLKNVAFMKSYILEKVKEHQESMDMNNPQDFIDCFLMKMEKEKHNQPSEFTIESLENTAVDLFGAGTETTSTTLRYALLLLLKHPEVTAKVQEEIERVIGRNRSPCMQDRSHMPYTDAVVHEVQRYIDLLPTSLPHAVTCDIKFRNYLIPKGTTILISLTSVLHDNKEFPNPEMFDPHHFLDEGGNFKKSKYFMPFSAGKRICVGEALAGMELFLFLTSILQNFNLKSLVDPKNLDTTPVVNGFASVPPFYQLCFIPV
Assay: In vitro inhibitory concentration against Cytochrome P450 2C9
Assay type: ADME
Details: not given

| IC50 | Structure (SMILES) |
| --- | --- |
| > 30 µM | O=C(O)Cc1ccc2oc(-c3ccc(NC(=O)/C=C/c4ccc(Br)cc4)c(F)c3)nc2c1 |

Target: T1, Heparanase (Homo sapiens, UniProt Q9Y251)
T1 sequence (Q9Y251 whole entry): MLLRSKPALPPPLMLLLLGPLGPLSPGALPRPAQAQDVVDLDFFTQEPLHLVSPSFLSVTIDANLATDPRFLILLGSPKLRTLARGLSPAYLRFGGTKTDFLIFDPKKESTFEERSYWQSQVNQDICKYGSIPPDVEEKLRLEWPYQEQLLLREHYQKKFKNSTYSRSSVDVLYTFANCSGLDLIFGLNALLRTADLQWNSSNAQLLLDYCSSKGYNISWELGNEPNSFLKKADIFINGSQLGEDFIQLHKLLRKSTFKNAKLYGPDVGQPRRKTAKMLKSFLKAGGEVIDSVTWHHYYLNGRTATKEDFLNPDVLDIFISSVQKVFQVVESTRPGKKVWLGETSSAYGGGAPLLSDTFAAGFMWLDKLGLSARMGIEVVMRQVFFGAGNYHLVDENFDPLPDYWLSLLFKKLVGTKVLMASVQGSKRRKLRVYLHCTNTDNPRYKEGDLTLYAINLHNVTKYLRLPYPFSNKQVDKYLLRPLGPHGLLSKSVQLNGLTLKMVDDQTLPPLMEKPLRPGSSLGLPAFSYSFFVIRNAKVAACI
Assay: In vitro inhibitory concentration against human Heparanase
Details: not given

| Structure (SMILES) | IC50 |
| --- | --- |
| COc1ccccc1NC(=O)/C=C/c1ccc(-c2nc3cc(CC(=O)O)ccc3o2)cc1 | > 10 µM |
| COc1ccc(NC(=O)/C=C/c2ccc(-c3nc4cc(CC(=O)O)ccc4o3)cc2)cc1OC | > 10 µM |
| O=C(O)Cc1ccc2oc(-c3ccc(NC(=O)/C=C/c4ccccc4)cc3Cl)nc2c1 | > 30 µM |

Further lines, results first:

| IC50 | Structure (SMILES) |
| --- | --- |
| > 30 µM | O=C(O)Cc1nc(-c2ccc(-c3ccc(NC(=O)c4ccccc4)cc3Cl)o2)cs1 |
| > 10 µM | O=C(O)Cc1ccc2oc(-c3ccc(NC(=O)c4ccc(Br)cc4)cc3Cl)nc2c1 |
